Laboratory results taken from patent US20240309090A1, “MODULATION OF ANDROGEN SIGNALING TO INNATE IMMUNE KILLING OF PROSTATE CANCER” (Brown University, priority 2023, published 2024).

Legend:
NK-92 cells = test: Flow cytometry of NK-92 activation markers CD69 and CD137; assay type: cell-based; settings: NK-92 monoculture, 48 h
Procedure: The surface expression of the NK cell activation markers CD69 and CD137 were also evaluated following the treatment of NK cell monocultures with ARi (FIG. 13D-E).
(§1) PCa cells were plated at a density of 3×10^5 cells per well of a 6-well plate and adhered overnight. […] After treatment, cells were trypsinized, stained, and incubated (Cell Staining Buffer SouthernBiotech #0225-01S) with the corresponding antibody for 45-60 min at 4° C. Viability dye was added with each run. NK-92 cells and patient-derived cells were stained similarly. Markers used for experiments included: Thermofisher HLA-E Monoclonal Antibody (3D12HLA-E), Alexa Fluor™ 488, eBioscience™, CD274 (PD-L1, B7-H1) Monoclonal Antibody (MIH1), eFluor™ 450, eBioscience™, Cell Signaling PD-1 (D4W2J) XPR Rabbit mAb, SYTOX™ Orange Dead Cell Stain, for flow cytometry, BioLegend APC anti-human CD159a (NKG2A) Antibody #375108, BioLegend APC anti-human CD69 Antibody #310909, BioLegend Alexa Fluor® 647 anti-human CD137 (4-1BB) [4B4-1] #309823. For staining of the patient-derived PBMCs and subsequent NK cell characterization, the following antibodies were used: BioLegend Anti-Perforin Mouse Monoclonal Antibody (PerCP Cy5.50, clone: dG9) #308113, BioLegend Anti-Granzyme B Mouse Monoclonal Antibody (FITC, clone: GB11) #515403, BioLegend Anti-CD56 Mouse Monoclonal Antibody (Alexa Fluor® 700, clone: 5.1H1) #362521, and BioLegend (PE anti-human CD45 Antibody) #304008.

LNCaP cells = test: Flow cytometry of HLA-E / PD-L1 surface expression on LNCaP; assay type: cell-based; settings: 48 h; for HLA-E surface expression / PD-L1 expression: Example 2, LNCaP; for HLA-E surface expression, mean fluorescence intensity (MFI): LNCaP, enza 15 μM, daro 20 μM
Procedure: The effect of ARi on the NKG2A ligand, HLA-E, was investigated by flow cytometry on PCa cells treated with enza and daro.
as §1
The effect of androgen pathway inhibitors in the expression of HLA-E, a negative and key negative modulator of NK cell function, was also performed using Flow Cytometry. PD-L1 expression levels were also measured. In advance, The NK cell immune checkpoint inhibitor monalizumab (targeting NKG2A and its ligand, HLA-E) was also combined with ARi.

[1] = system: PCa cell lines (PC3, LNCaP, 22Rv1, DU145); test: Cytokine profiling of prostate cancer cell culture supernatants (Luminex 200); assay type: cell-based; settings: for IFN-γ secretion: DU145, 22Rv1, and PC3 cell lines; for secretion of immune-activating cytokines such as IL-2 / secretion of pro-tumorigenic and immunosuppressive cytokines such as VEGF, M-CSF, IL-8, CXCL10 and GDF-15: PCa cell lines, 24 h
Procedure: GDF-15 is implicated in the immunosuppressive prostate cancer TME and the progression of benign prostate hyperplasia to adenocarcinoma.
The medium was collected 24 hours after treatment and stored at −80° C. until readout. Samples were shipped to Brown University to run them in biological duplicate on a Luminex 200 Instrument (R&D LX200-XPON-RUO), which captures cytokines on magnetic antibody-coated beads and measures cytokine levels using a system based on the principles of flow cytometry (see https:/www.luminexcorp.com/luminex-100200/#overviewfor more information). A custom […] panel was split into 34-plex and 18-plex assays (R&D LXSAHM) and was run on the Luminex 200 instrument according to the manufacturer's protocol.
(§2) We conducted cell viability assays to investigate the effect of Enza and Daro on PC cells (LNCap, 22Rv1 [ARv7 mutation], DU145, PC3 [AR-]) and NK-92 cells. We performed co-culture experiments with PC and NK cells in a 1:1 ratio and analyzed immune cell-mediated tumor cell killing (ImageXpress Confocal HT). Cytokine profiling (Luminex 200) of culture supernatants was performed following treatment with ARi−/+ and anti-IFN-γ antibodies. In vivo studies were performed in NCr Nude mice harboring subcutaneous PC tumors treated orally with Daro (50 mg/kg/bid) and Enza (30 mg/kg/bid) for 4 weeks.

[2] = system: PC tumors (PC3, 22Rv1 xenograft); test: NK cell infiltration in subcutaneous PC tumors of treated mice; assay type: in vivo, NCr Nude mice; settings: oral, Daro 50 mg/kg/bid, Enza 30 mg/kg/bid, 4 weeks
Procedure: as §2
In vivo studies were performed in NCr Nude mice harboring subcutaneous PC tumors treated orally with Daro (50 mg/kg/bid) and Enza (30 mg/kg/bid) for 4 weeks.

NK cells = test: Flow cytometry of NKG2A and PD-1 surface expression on NK cells; assay type: cell-based
Procedure: as §1
Methods: PCa cell lines (LNCaP, 22Rv1 [ARv7 mutation], DU145[AR-], PC3 [AR-]) were cocultured with NK-92 cells and treated with ARi (enzalutamide [enza] and darolutamide [daro]) or in combination with anti-NKG2A antibody monalizumab. Immune cell-mediated tumor cell killing assays and multiplexed cytokine profiling were performed. NKc expression of NKG2A and PCa cells expression of HLA-E were investigated by flow cytometry. The AR-negative cell lines (PC3 and DU145) were stably transduced with a functional AR pathway to evaluate the modulation of HLA-E by AR. The activation status of peripheral blood NKc isolated from patients with PCa before and post-initiation of androgen deprivation therapy (ADT) was investigated by flow cytometry.

| SMILES | expression of CD69 (NK-92 cells) [%] | expression of CD137 (NK-92 cells) [%] | HLA-E surface expression (LNCaP cells) [%] | PD-L1 expression (LNCaP cells) | HLA-E surface expression, mean fluorescence intensity (MFI) (LNCaP cells) | IFN-γ secretion [1] | secretion of immune-activating cytokines such as IL-2 [1] | secretion of pro-tumorigenic and immunosuppressive cytokines such as VEGF, M-CSF, IL-8, CXCL10 and GDF-15 [1] | NK cell infiltration in the tumor microenvironment [2] | surface expression of NKG2A (NK cells) |
| --- | --- | --- | --- | --- | --- | --- | --- | --- | --- | --- |
| CC(O)c1cc(C(=O)N[C@@H](C)Cn2ccc(-c3ccc(C#N)c(Cl)c3)n2)n[nH]1 (some centres unmarked) [darolutamide] | 88.63 | 64.87 | 0.8 | increase | 39.47±3.39×10^3 | upregulation | increased | reduced | increased | modulate |
| CNC(=O)c1ccc(N2C(=S)N(c3ccc(C#N)c(C(F)(F)F)c3)C(=O)C2(C)C)cc1F [enzalutamide] | 87.4 | 61.54 | 1.1 | increase | 37.38±1.7×10^3 | upregulation | increased | reduced | increased | modulate |
